According to patent US20230278972A1, “SUBSTITUTED HALOALKYL SULFONANILIDE HERBICIDES” (FMC Corporation, priority 2020, published 2023):

Assays:
Assay type in all cases: in vivo
[1] = test system: Pigweed, Palmer (palmer amaranth, palmer pigweed, Amaranthus palmeri); assay: Test A1 preemergence, Pigweed, Palmer
Summary of the method: (§1)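 Seeds were first planted into a blend of loam soil and sand and given a preemergence directed soil spray. In parallel, pots of the same soil were sown for postemergence application once plants reached 2 to 10 cm and the one- to two-leaf stage. Both used surfactant-containing non-phytotoxic solvent formulations.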

[2] = test system: blackgrass (Alopecurus myosuroides); assay: Test A1 preemergence, blackgrass
Summary of the method: as §1

kochia (Bassia scoparia) [3] = assay: Test A1 preemergence, kochia
Summary of the method: as §1

kochia (Bassia scoparia) [4] = assay: Test A1 postemergence, kochia; details: for Plant response rating, Kochia: Postemergence; for Kochia plant response rating: postemergence
Summary of the method: (§2)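 Plants grown in pots of loam/sand mix; preemergence = soil-directed spray on seeded pots, postemergence = spray at 1–2 leaves, height 2–10 cm; test chemicals formulated in non-phytotoxic solvent with surfactant.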

soybean (Glycine max) = assay: Test A1 postemergence, soybean; details: for Plant response rating, Soybean: Postemergence; for Soybean plant response rating: postemergence
Summary of the method: as §2

[5] = test system: Oat, Wild (wild oat, Avena fatua); assay: Test A1 preemergence, Oat, Wild
Summary of the method: as §1

[6] = test system: goosegrass (Eleusine indica); assay: Test A1 preemergence, goosegrass
Summary of the method: as §1

[7] = test system: Ryegrass, Italian (Italian ryegrass, Lolium multiflorum); assay: Test A1 postemergence, Ryegrass, Italian; details: for Plant response rating, Ryegrass, Italian: Postemergence; for Ryegrass, Italian plant response rating: postemergence
Summary of the method: as §2

[8] = 31 g ai/ha, 0 to 100 scale (0 no effect, 100 complete control)
[9] = 125 g ai/ha, 0 to 100 scale, 0 no effect, 100 complete control
[10] = 31 g ai/ha, 0 to 100 scale (0 no effect, 100 complete control), 10 days

CCOC(=O)N(c1cc(C(=O)N2CCC(c3ccccc3)CC2)c(C)cc1C)S(=O)(=O)C(F)(F)F [Compound 365]
Plant response rating, Pigweed, Palmer [1, 8]: 30 | Plant response rating, Pigweed, Palmer [1, 9]: 30 | Plant response rating, Blackgrass [2, 8]: 0 | Plant response rating, Blackgrass [2, 9]: 0 | Plant response rating, Kochia (kochia (Bassia scoparia) [3]; [8]): 0 | Plant response rating, Kochia (kochia (Bassia scoparia) [3]; [9]): 0 | Plant response rating, Kochia (kochia (Bassia scoparia) [4]; [10]): 10 | Plant response rating, Kochia (kochia (Bassia scoparia) [4]; 125 g ai/ha, 0 to 100 scale): 40 | Plant response rating, Soybean (soybean (Glycine max); [10]): 0 | Plant response rating, Soybean (soybean (Glycine max); 125 g ai/ha, 0 to 100 scale): 60 | Plant response rating, Oat, Wild [5, 8]: 0 | Plant response rating, Oat, Wild [5, 9]: 0 | Plant response rating, Goosegrass [6, 8]: 10 | Plant response rating, Goosegrass [6, 9]: 90 | Plant response rating, Ryegrass, Italian [7, 10]: 0 | Plant response rating, Ryegrass, Italian ([7]; 125 g ai/ha, 0 to 100 scale): 10

COC1CCN(C(=O)c2cc(NS(=O)(=O)C(F)(F)F)c(C)c(C)c2C)CC1 [Compound 367]
Plant response rating, Pigweed, Palmer [1, 8]: 80 | Plant response rating, Pigweed, Palmer [1, 9]: 100 | Plant response rating, Blackgrass [2, 8]: 0 | Plant response rating, Blackgrass [2, 9]: 0 | Plant response rating, Kochia (kochia (Bassia scoparia) [3]; [8]): 0 | Plant response rating, Kochia (kochia (Bassia scoparia) [3]; [9]): 20 | Kochia plant response rating (kochia (Bassia scoparia) [4]; [8]): 20 | Plant response rating, Kochia (kochia (Bassia scoparia) [4]; 125 g ai/ha, 0 to 100 scale): 30 | Soybean plant response rating (soybean (Glycine max); [8]): 50 | Plant response rating, Soybean (soybean (Glycine max); 125 g ai/ha, 0 to 100 scale): 80 | Plant response rating, Oat, Wild [5, 8]: 20 | Plant response rating, Oat, Wild [5, 9]: 30 | Plant response rating, Goosegrass [6, 8]: 60 | Plant response rating, Goosegrass [6, 9]: 80 | Ryegrass, Italian plant response rating [7, 8]: 0 | Plant response rating, Ryegrass, Italian ([7]; 125 g ai/ha, 0 to 100 scale): 0

C#CCN(C)C(=O)c1cc(NS(=O)(=O)C(F)(F)F)c(C)c(C)c1C [Compound 368]
Plant response rating, Pigweed, Palmer [1, 8]: 100 | Plant response rating, Pigweed, Palmer [1, 9]: 100 | Plant response rating, Blackgrass [2, 8]: 10 | Plant response rating, Blackgrass [2, 9]: 40 | Plant response rating, Kochia (kochia (Bassia scoparia) [3]; [8]): 20 | Plant response rating, Kochia (kochia (Bassia scoparia) [3]; [9]): 90 | Kochia plant response rating (kochia (Bassia scoparia) [4]; [8]): 60 | Plant response rating, Kochia (kochia (Bassia scoparia) [4]; 125 g ai/ha, 0 to 100 scale): 80 | Soybean plant response rating (soybean (Glycine max); [8]): 70 | Plant response rating, Soybean (soybean (Glycine max); 125 g ai/ha, 0 to 100 scale): 90 | Plant response rating, Oat, Wild [5, 8]: 10 | Plant response rating, Oat, Wild [5, 9]: 20 | Plant response rating, Goosegrass [6, 8]: 70 | Plant response rating, Goosegrass [6, 9]: 90 | Ryegrass, Italian plant response rating [7, 8]: 20 | Plant response rating, Ryegrass, Italian ([7]; 125 g ai/ha, 0 to 100 scale): 90

Cc1c(C(=O)N2CCC(C)CC2)cc(N(COC(=O)C(C)(C)C)S(=O)(=O)C(F)(F)F)c(C)c1C [Compound 369]
Plant response rating, Pigweed, Palmer [1, 8]: 0 | Plant response rating, Pigweed, Palmer [1, 9]: 50 | Plant response rating, Blackgrass [2, 8]: 0 | Plant response rating, Blackgrass [2, 9]: 0 | Plant response rating, Kochia (kochia (Bassia scoparia) [3]; [8]): 0 | Plant response rating, Kochia (kochia (Bassia scoparia) [3]; [9]): 0 | Kochia plant response rating (kochia (Bassia scoparia) [4]; [8]): 0 | Plant response rating, Kochia (kochia (Bassia scoparia) [4]; 125 g ai/ha, 0 to 100 scale): 50 | Soybean plant response rating (soybean (Glycine max); [8]): 20 | Plant response rating, Soybean (soybean (Glycine max); 125 g ai/ha, 0 to 100 scale): 90 | Plant response rating, Oat, Wild [5, 8]: 0 | Plant response rating, Oat, Wild [5, 9]: 20 | Plant response rating, Goosegrass [6, 8]: 0 | Plant response rating, Goosegrass [6, 9]: 50 | Ryegrass, Italian plant response rating [7, 8]: 0 | Plant response rating, Ryegrass, Italian ([7]; 125 g ai/ha, 0 to 100 scale): 20

COC1CCN(C(=O)c2cc(N(COC(=O)C(C)(C)C)S(=O)(=O)C(F)(F)F)c(C)c(C)c2C)CC1 [Compound 370]
Plant response rating, Pigweed, Palmer [1, 8]: 30 | Plant response rating, Pigweed, Palmer [1, 9]: 70 | Plant response rating, Blackgrass [2, 8]: 0 | Plant response rating, Blackgrass [2, 9]: 0 | Plant response rating, Kochia (kochia (Bassia scoparia) [3]; [8]): 0 | Plant response rating, Kochia (kochia (Bassia scoparia) [3]; [9]): 20 | Kochia plant response rating (kochia (Bassia scoparia) [4]; [8]): 0 | Plant response rating, Kochia (kochia (Bassia scoparia) [4]; 125 g ai/ha, 0 to 100 scale): 20 | Soybean plant response rating (soybean (Glycine max); [8]): 50 | Plant response rating, Soybean (soybean (Glycine max); 125 g ai/ha, 0 to 100 scale): 80 | Plant response rating, Oat, Wild [5, 8]: 0 | Plant response rating, Oat, Wild [5, 9]: 0 | Plant response rating, Goosegrass [6, 8]: 30 | Plant response rating, Goosegrass [6, 9]: 90 | Ryegrass, Italian plant response rating [7, 8]: 0 | Plant response rating, Ryegrass, Italian ([7]; 125 g ai/ha, 0 to 100 scale): 0

C#CCN(C)C(=O)c1cc(N(COC(=O)C(C)(C)C)S(=O)(=O)C(F)(F)F)c(C)c(C)c1C [Compound 371]
Plant response rating, Pigweed, Palmer [1, 8]: 10 | Plant response rating, Pigweed, Palmer [1, 9]: 80 | Plant response rating, Blackgrass [2, 8]: 0 | Plant response rating, Blackgrass [2, 9]: 20 | Plant response rating, Kochia (kochia (Bassia scoparia) [3]; [8]): 0 | Plant response rating, Kochia (kochia (Bassia scoparia) [3]; [9]): 70 | Kochia plant response rating (kochia (Bassia scoparia) [4]; [8]): 40 | Plant response rating, Kochia (kochia (Bassia scoparia) [4]; 125 g ai/ha, 0 to 100 scale): 70 | Soybean plant response rating (soybean (Glycine max); [8]): 60 | Plant response rating, Soybean (soybean (Glycine max); 125 g ai/ha, 0 to 100 scale): 90 | Plant response rating, Oat, Wild [5, 8]: 0 | Plant response rating, Oat, Wild [5, 9]: 0 | Plant response rating, Goosegrass [6, 8]: 0 | Plant response rating, Goosegrass [6, 9]: 90 | Ryegrass, Italian plant response rating [7, 8]: 20 | Plant response rating, Ryegrass, Italian ([7]; 125 g ai/ha, 0 to 100 scale): 80

Cc1cc(C)c(C2=NOC3OCCCC23)cc1NS(=O)(=O)C(F)(F)F (stereo not drawn) [Compound 372]
Plant response rating, Pigweed, Palmer [1, 8]: 40 | Plant response rating, Pigweed, Palmer [1, 9]: 90 | Plant response rating, Blackgrass [2, 8]: 0 | Plant response rating, Blackgrass [2, 9]: 40 | Plant response rating, Kochia (kochia (Bassia scoparia) [3]; [8]): 0 | Plant response rating, Kochia (kochia (Bassia scoparia) [3]; [9]): 70 | Kochia plant response rating (kochia (Bassia scoparia) [4]; [8]): 0 | Plant response rating, Kochia (kochia (Bassia scoparia) [4]; 125 g ai/ha, 0 to 100 scale): 0 | Soybean plant response rating (soybean (Glycine max); [8]): 30 | Plant response rating, Soybean (soybean (Glycine max); 125 g ai/ha, 0 to 100 scale): 60 | Plant response rating, Oat, Wild [5, 8]: 0 | Plant response rating, Oat, Wild [5, 9]: 20 | Plant response rating, Goosegrass [6, 8]: 90 | Plant response rating, Goosegrass [6, 9]: 100 | Ryegrass, Italian plant response rating [7, 8]: 0 | Plant response rating, Ryegrass, Italian ([7]; 125 g ai/ha, 0 to 100 scale): 50

CCC1CC(c2cc(NS(=O)(=O)C(F)(F)F)c(C)cc2C)=NO1 (stereo not drawn) [Compound 375]
Plant response rating, Pigweed, Palmer [1, 8]: 0 | Plant response rating, Pigweed, Palmer [1, 9]: 80 | Plant response rating, Blackgrass [2, 8]: 20 | Plant response rating, Blackgrass [2, 9]: 50 | Plant response rating, Kochia (kochia (Bassia scoparia) [3]; [8]): 0 | Plant response rating, Kochia (kochia (Bassia scoparia) [3]; [9]): 70 | Kochia plant response rating (kochia (Bassia scoparia) [4]; [8]): 0 | Plant response rating, Kochia (kochia (Bassia scoparia) [4]; 125 g ai/ha, 0 to 100 scale): 60 | Soybean plant response rating (soybean (Glycine max); [8]): 30 | Plant response rating, Soybean (soybean (Glycine max); 125 g ai/ha, 0 to 100 scale): 60 | Plant response rating, Oat, Wild [5, 8]: 0 | Plant response rating, Oat, Wild [5, 9]: 20 | Plant response rating, Goosegrass [6, 8]: 70 | Plant response rating, Goosegrass [6, 9]: 100 | Ryegrass, Italian plant response rating [7, 8]: 0 | Plant response rating, Ryegrass, Italian ([7]; 125 g ai/ha, 0 to 100 scale): 40

CCC1CC(c2cc(N(COC(=O)C(C)(C)C)S(=O)(=O)C(F)(F)F)c(C)cc2C)=NO1 (stereo not drawn) [Compound 376]
Plant response rating, Pigweed, Palmer [1, 8]: 0 | Plant response rating, Pigweed, Palmer [1, 9]: 40 | Plant response rating, Blackgrass [2, 8]: 0 | Plant response rating, Blackgrass [2, 9]: 20 | Plant response rating, Kochia (kochia (Bassia scoparia) [3]; [8]): 0 | Plant response rating, Kochia (kochia (Bassia scoparia) [3]; [9]): 80 | Kochia plant response rating (kochia (Bassia scoparia) [4]; [8]): 0 | Plant response rating, Kochia (kochia (Bassia scoparia) [4]; 125 g ai/ha, 0 to 100 scale): 50 | Soybean plant response rating (soybean (Glycine max); [8]): 20 | Plant response rating, Soybean (soybean (Glycine max); 125 g ai/ha, 0 to 100 scale): 100 | Plant response rating, Oat, Wild [5, 8]: 0 | Plant response rating, Oat, Wild [5, 9]: 10 | Plant response rating, Goosegrass [6, 8]: 50 | Plant response rating, Goosegrass [6, 9]: 100 | Ryegrass, Italian plant response rating [7, 8]: 0 | Plant response rating, Ryegrass, Italian ([7]; 125 g ai/ha, 0 to 100 scale): 0
